Results as given in patent US20030143757A1, “Methods for identifying drug cores” (priority 1997, published 2003).

Target: p38 MAP kinase (Homo sapiens, UniProt Q16539)
Settings: 1 mM each drug core, 0.2 mM p38 MAP kinase, 5° C., pD* 8.4, relaxation filter
Method: All the spectra were acquired at 5° C. using a Bruker DMX 500 MHz NMR spectrometer. NOESY spectra were collected using 16 transients with 2048 points in ω2 and 400 points in ω1 and a mixing time of 400 ms for the drug core mixture in the absence of target and 100 ms for the drug core mixture in the presence of p38. A spin echo with an echo delay of 5 ms was used as a relaxation filter before the t1 evolution period in all experiments. Samples contained 1 mM of each drug core, 0.2 mM p38 MAP kinase, 25 mM deutero-Tris, 10% (v/v) deutero-glycerol, 20 mM deutero-dithiothreitol at pD*=8.4.

Chain of p38 MAP kinase (Q16539 whole entry): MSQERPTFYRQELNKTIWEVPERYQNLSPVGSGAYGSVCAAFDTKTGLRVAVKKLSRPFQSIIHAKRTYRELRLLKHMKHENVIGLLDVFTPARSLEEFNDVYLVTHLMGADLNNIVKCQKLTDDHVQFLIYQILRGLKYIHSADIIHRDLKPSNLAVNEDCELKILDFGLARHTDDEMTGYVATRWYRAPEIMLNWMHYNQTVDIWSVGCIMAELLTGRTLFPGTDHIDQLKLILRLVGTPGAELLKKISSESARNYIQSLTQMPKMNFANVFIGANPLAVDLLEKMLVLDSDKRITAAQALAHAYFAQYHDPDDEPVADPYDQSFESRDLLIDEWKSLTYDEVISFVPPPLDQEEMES

SMILES: O=C(O)c1cccnc1 [nicotinic acid]
- binding to p38 MAP kinase by line broadening and peak height attenuation in 1D NMR: does not
